Test results: US9693997B2, “Antiviral compounds” (priority 2013, dated 2017)
Where a name gives a salt, the structure may show the parent alone. Read-outs that look alike come from different tables or passages of the source.

Tests used:
[1] = system: Pseudotyped HCV GT1b particles (HCVpp), entry into Huh7-high CD81 cells; experiment: microbe, parasite or virus in culture; assay type: cell-based, HCV GT1b Con1 strain
[2] = system: pseudotyped VSV G particles (VSVpp) in Huh7-high CD81 cells; experiment: microbe, parasite or virus in culture; assay type: cell-based, vesicular stomatitis virus
[3] = Hepatitis C virus, GT1B, 72 h, read-out: HCVpp GT-1b (EC50, μM)
[4] = Vesicular stomatitis virus, 72 h, read-out: VSVpp (EC50, μM)

SMILES	EC50 [1, 3]	EC50 [2, 4]	EC50 ([1]; read-out: HCVpp GT-1b (EC50))	EC50 ([2]; read-out: VSVpp (EC50))
C[C@@H](NS(C)(=O)=O)c1ccc(-c2c(Cl)cc(Nc3n[nH]c(N)n3)cc2C(F)(F)F)cc1 [Compound 24, N—{(R)-1-[4′-(5-Amino-1H-[1,2,4]triazol-3-ylamino)-2′-chloro-6′-trifluoromethyl-biphenyl-4-yl]-ethyl}-methanesulfonamide]	0.058 µM	> 10 µM	–	–
CS(=O)(=O)c1ccc(-c2c(F)cc(Nc3nc(N)n[nH]3)cc2F)cc1 [Compound 76, N^5-(2,6-difluoro-4′-(methylsulfonyl)biphenyl-4-yl)-1H-[1,2,4]-triazole-3,5-diamine]	0.246 µM	> 10 µM	–	–
Nc1nc(Nc2cc(Cl)c(-c3cccc(S(=O)(=O)N4CCCC4)c3)c(C(F)(F)F)c2)n[nH]1 [Compound 192, N3-(2-chloro-3′-(pyrrolidin-1-ylsulfonyl)-6-(trifluoromethyl)biphenyl-4-yl)-1H-1,2,4-triazole-3,5-diamine]	0.084 µM	17.2 µM	–	–
CC(C)(C)CCNCCOc1ccc(-c2c(Cl)cc(Nc3n[nH]c(N)n3)cc2C(F)(F)F)cc1 [Compound 136, N*3*-{6-Chloro-4′-[2-(3,3-dimethyl-butylamino)-ethoxy]-2-trifluoromethyl-biphenyl-4-yl}-1H-[1,2,4]triazole-3,5-diamine hydrochloride]	0.005 µM	3.08 µM	–	–
CC(C)(C)CCN(CCOc1ccc(-c2c(Cl)cc(Nc3n[nH]c(N)n3)cc2C(F)(F)F)cc1)CCC(C)(C)C [Compound 137, N*3*-(4′-{2-[Bis-(3,3-dimethyl-butyl-amino)-ethoxy}-6-chloro-2-trifluoromethyl-biphenyl-4-yl]-1H-[1,2,4]triazole-3,5-diamine]	0.062 µM	> 10 µM	–	–
COc1ccc(-c2c(Cl)cc(Nc3n[nH]c(N)n3)cc2C(F)(F)F)cc1S(=O)(=O)NC1CCN(C(=O)OC(C)(C)C)CC1 [Compound 221, 4-[4′-(5-Amino-1H-[1,2,4]triazol-3-ylamino)-6′-chloro-4-methoxy-2′-trifluoromethyl-biphenyl-3-sulfonylamino]-piperidine-1-carboxylic acid tert-butyl ester]	0.003 µM	4.55 µM	–	–
CC1(O)CCN(S(=O)(=O)c2ccc(-c3c(Cl)cc(Nc4n[nH]c(N)n4)cc3C(F)(F)F)cc2)C1 (stereo not drawn) [Compound 68, 1-[4′-(5-Amino-1H-[1,2,4]triazol-3-ylamino)-6′-chloro-2′-trifluoromethyl-biphenyl-4-sulfonyl]-3-methyl-pyrrolidin-3-ol]	0.05 µM	8.73 µM	–	–
Nc1nc(Nc2cc(Cl)c(-c3ccc(OCCCN4CCOCC4)cc3)c(Cl)c2)n[nH]1 [Compound 283, N*3*-[2,6-Dichloro-4′-(3-morpholin-4-yl-propoxy)-biphenyl-4-yl]-1H-[1,2,4]triazole-3,5-diamine]	0.523 µM	> 10 µM	–	–
Nc1nc(Nc2cc(Cl)c(-c3ccc([N+](=O)[O-])cc3)c(Cl)c2)n[nH]1 [Compound 83]	0.532 µM	4.34 µM	–	–
CC(C)(C)NS(=O)(=O)c1ccc(-c2c(Cl)cc(Nc3n[nH]c(N)n3)cc2Cl)cc1 [Compound 164, 4′-(5-amino-1H-1,2,4-triazol-3-ylamino)-N-tert-butyl-2′,6′-dichlorobiphenyl-4-sulfonamide]	0.004 µM	7.06 µM	–	–
CN(CCOc1ccc(-c2c(Cl)cc(Nc3n[nH]c(N)n3)cc2C(F)(F)F)cc1)C(=O)OC(C)(C)C [Compound 125, {2-[4′-(5-Amino-1H-[1,2,4]triazol-3-ylamino)-6′-chloro-2′-trifluoromethyl-biphenyl-4-yloxy]-ethyl}-methyl-carbamic acid tert-butyl ester]	0.096 µM	> 10 µM	–	–
Nc1ccc(-c2c(Cl)cc(Nc3n[nH]c(N)n3)cc2Cl)cc1 [Compound 50, N*3*-(4′-Amino-2,6-dichloro-biphenyl-4-yl)-1H-[1,2,4]triazole-3,5-diamine]	0.689 µM	> 10 µM	–	–
Nc1nc(Nc2cc(Cl)c(-c3ccc(F)c(C(=O)NCCO)c3)c(C(F)(F)F)c2)n[nH]1 [Compound 294, 4′-(5-amino-1H-1,2,4-triazol-3-ylamino)-2′-chloro-4-fluoro-N-(2-hydroxyethyl)-6′-(trifluoromethyl)biphenyl-3-carboxamide]	0.544 µM	38.3 µM	–	–
COc1ccc(-c2c(Cl)cc(Nc3n[nH]c(N)n3)cc2C(F)(F)F)cc1S(=O)(=O)N(CC(F)(F)F)C1CCNCC1 [Compound 234, 4′-(5-Amino-1H-[1,2,4]triazol-3-ylamino)-6′-chloro-4-methoxy-2′-trifluoromethyl-biphenyl-3-sulfonic acid piperidin-4-yl-(2,2,2-trifluoro-ethyl)-amide; compound with trifluoro-acetic acid]	0.005 µM	> 10 µM	–	–
Nc1nc(Nc2cc(Cl)c(-c3ccc(S(=O)(=O)C4CCN(CCC(F)(F)F)CC4)cc3)c(C(F)(F)F)c2)n[nH]1 [Compound 4, N*3*-{2-Chloro-6-trifluoromethyl-4′-[1-(3,3,3-trifluoro-propyl)-piperidine-4-sulfonyl]-biphenyl-4-yl}-1H-[1,2,4]triazole-3,5-diamine; hydrochloride]	0.005 µM	> 10 µM	–	–
CC(C)N1CC(C)(NS(=O)(=O)c2ccc(-c3c(Cl)cc(Nc4n[nH]c(N)n4)cc3C(F)(F)F)cc2)C1 [Compound 210, 4′-(5-amino-1H-1,2,4-triazol-3-ylamino)-2′-chloro-N-(1-isopropyl-3-methylazetidin-3-yl)-6′-(trifluoromethyl)biphenyl-4-sulfonamide hydrochloride]	0.021 µM	4.41 µM	–	–
CNC(=O)c1cccc(-c2c(F)cc(Nc3nc(N)n[nH]3)cc2C(F)(F)F)c1 [Compound 248, 4′-(5-Amino-2H-[1,2,4]-triazol-3-ylamino)-6′-fluoro-2′-trifluoromethyl-biphenyl-43-carboxylic acid methylamide]	1.02 µM	> 10 µM	–	–
CC(C)N1CC(C)(NS(=O)(=O)c2ccc(-c3c(Cl)cc(Nc4n[nH]c(N)n4)cc3C(F)(F)F)cc2)C1 [Compound 211, 4′-(5-amino-1H-1,2,4-triazol-3-ylamino)-2′-chloro-N-(1-isopropyl-3-methylazetidin-3-yl)-6′-(trifluoromethyl)biphenyl-4-sulfonamide; compound with trifluoro-acetic acid]	–	–	0.012 µM	3.65 µM
Cc1ccc(-c2c(F)cc(Nc3nc(N)n[nH]3)cc2C(F)(F)F)cc1 [Compound 247, N^5-[6-Fluoro-4′-methyl-2-trifluoromethylbiphenyl-4-yl]-1H-[1,2,4]-triazole-3,5-diamine]	1.7 µM	10.7 µM	–	–
Nc1n[nH]c(Nc2cc(F)c(-c3cccc(F)c3)c(C(F)(F)F)c2)n1 [Compound 244]	0.689 µM	33.4 µM	–	–
CC(C)(C)Oc1ccc(-c2c(Cl)cc(Nc3n[nH]c(N)n3)cc2C(F)(F)F)cc1 [Compound 230, N*3*-(4′-tert-Butoxy-6-chloro-2-trifluoromethyl-biphenyl-4-yl)-1H-[1,2,4]triazole-3,5-diamine]	0.332 µM	> 10 µM	–	–
CC(C)C(=O)Nc1ccc(-c2c(Cl)cc(Nc3n[nH]c(N)n3)cc2Cl)cc1 [Compound 251, N-[4′-(5-amino-1H-[1,2,4]triazol-3-ylamino)-2′,6′-dichloro-biphenyl-4-yl]-isobutyramide]	0.041 µM	32.5 µM	–	–
Nc1nc(Nc2cc(Cl)c(-c3ccc(S(=O)(=O)C4CNC4)cc3)c(C(F)(F)F)c2)n[nH]1 [Compound 67, N*3*-[4′-(Azetidine-3-sulfonyl)-6-chloro-2-trifluoromethyl-biphenyl-4-yl]-1H-[1,2,4]triazole-3,5-diamine hydrochloride]	0.107 µM	> 10 µM	–	–
Nc1nc(Nc2ccc(-c3ccc(F)cc3)c(C(F)(F)F)c2)n[nH]1 [Compound 151, N*3*-(4′-Fluoro-2-trifluoromethyl-biphenyl-4-yl)-1H-[1,2,4]triazole-3,5-diamine]	0.356 µM	26.5 µM	–	–
Nc1nc(Nc2cc(Cl)c(-c3ccccc3)c(C(F)(F)F)c2)n[nH]1 [Compound 201, N3-(2-chloro-6-(trifluoromethyl)biphenyl-4-yl)-1H-1,2,4-triazole-3,5-diamine 2,2,2-trifluoroacetate]	0.405 µM	58.3 µM	–	–
CC(C)(C)OC(=O)N1CCC[C@@H]1COc1ccc(-c2c(Cl)cc(Nc3n[nH]c(N)n3)cc2C(F)(F)F)cc1 [Compound 267, (R)-2-[4′-(5-Amino-1H-[1,2,4]triazol-3-ylamino)-2′-chloro-6′-trifluoromethyl-biphenyl-4-yloxymethyl]-pyrrolidine-1-carboxylic acid tert-butyl ester]	0.048 µM	9.62 µM	–	–
Cc1ccc(-c2c(Cl)cc(Nc3n[nH]c(N)n3)cc2C(F)(F)F)cc1S(=O)(=O)NC(C)(C)C [Compound 18, 4′-(5-Amino-1H-[1,2,4]triazol-3-ylamino)-2′-chloro-4-methyl-6′-trifluoromethyl-biphenyl-3-sulfonic acid tert-butylamide]	0.032 µM	3.47 µM	–	–
COc1ccc(-c2c(Cl)cc(Nc3n[nH]c(N)n3)cc2C(F)(F)F)cc1S(=O)(=O)NC1CCOCC1 [Compound 168, 4′-(5-amino-1H-1,2,4-triazol-3-ylamino)-2′-chloro-4-methoxy-N-(tetrahydro-2H-pyran-4-yl)-6′-(trifluoromethyl)biphenyl-3-sulfonamide]	0.011 µM	–	–	–
COc1ccc(-c2c(Cl)cc(Nc3n[nH]c(N)n3)cc2C(F)(F)F)cc1S(N)(=O)=O [Compound 180, 4′-(5-amino-1H-1,2,4-triazol-3-ylamino)-2′-chloro-4-methoxy-6′-(trifluoromethyl)biphenyl-3-sulfonamide]	0.036 µM	–	–	–
COc1ccc(-c2c(Cl)cc(Nc3n[nH]c(N)n3)cc2C(F)(F)F)cc1S(=O)(=O)NC1CCNCC1 [Compound 222, 4′-(5-Amino-1H-[1,2,4]triazol-3-ylamino)-6′-chloro-4-methoxy-2′-trifluoromethyl-biphenyl-3-sulfonic acid piperidin-4-ylamide; compound with trifluoro-acetic acid]	–	–	0.014 µM	–
